pIC50: −log10 of the molar value.
Columns and labels:
[1] = molecular target: HBV C150Bo protein (mutant C150 HBV capsid protein labeled with BoDIPY-FL) (Hepatitis B virus genotype D subtype adw, UniProt P03147, C107A/C48A/C61A/R150C); test: HBV assembly assay (fluorescence quenching in vitro capsid assembly); assay type: biochemical; conditions: for Activity (HBV assembly assay): at about 10 μM, 50 mM Hepes pH 7.5, 150 mM NaCl, 1 hour at room temperature; for pIC50: HBV assembly assay, read-out: Activity (HBV assembly potency, IC50)
Chain of HBV C150Bo protein (mutant C150 HBV capsid protein labeled with BoDIPY-FL) (P03147 1-150 C48A/C61A/C107A/R150C): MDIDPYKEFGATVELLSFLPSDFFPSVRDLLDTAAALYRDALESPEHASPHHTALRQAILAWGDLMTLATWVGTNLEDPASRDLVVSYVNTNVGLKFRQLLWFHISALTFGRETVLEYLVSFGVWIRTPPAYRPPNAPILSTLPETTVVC

[2] = test system: HBV replication in HepG2-2.2.15 cells; test: Dot-blot assay: inhibition of HBV replication in HBV-producing hepatoma cell line; assay type: cell-based; conditions: Hepatitis B virus, 144 h, six days, reduction in HBV DNA levels
Experimental: Compounds active in the HBV assembly assay are tested for their activity and toxicity in cellular assay. In the first anti-viral assay, the ability of compounds to inhibit HBV replication in an HBV-producing hepatoma cell line using the dot-blot method is evaluated.
Briefly, confluent monolayers of HepG2-2.2.15 cells are incubated with complete medium containing various concentrations of a test compound. Three days later, the culture medium is replaced with fresh medium containing the appropriately diluted test compound. Six days following the initial administration of the test compound, the cell culture supernatant is collected, and cell lysis is performed. The samples are applied onto Nylos membranes and DNA is immobilized to the membrane by UV cross-linking. After pre-hybridization, the HBV probe is added and the hybridization is performed overnight. The membranes are exposed to the Kodak films; antiviral activity is calculated from the reduction in HBV DNA levels (EC50). The EC50 for antiviral activity is calculated from the dose response curves of active compounds. Assay performance over time is monitored by the use of the standard positive control compounds ETV, BAY 41-4109, and HAP-1.
In the first anti-viral assay, the ability of compounds to inhibit HBV replication in an HBV-producing hepatoma cell line using the dot-blot method was evaluated.
Confluent monolayers of HepG2-2.2.15 cells were incubated with complete medium containing various concentrations of a test compound. Three days later, the culture medium was replaced with fresh medium containing the appropriately diluted test compound. Six days following the initial administration of the test compound, the cell culture supernatant was collected, and cell lysis was performed. The samples were applied onto Nylos membranes and DNA was immobilized to the membrane by UV cross-linking. After pre-hybridization, the HBV probe was added and the hybridization was performed overnight. The membranes were exposed to the Kodak films; antiviral activity was calculated from the reduction in HBV DNA levels (EC50). The EC50 for antiviral activity was calculated from the dose response curves of active compounds. Assay performance over time was monitored by the use of the standard positive control compounds ETV, BAY 41-4109, and HAP-1.

| Structure (SMILES) | Activity (HBV assembly assay) [1] | inhibition at 10 µM [2] [%] | pIC50 [1] |
| --- | --- | --- | --- |
| O=C(Nc1ccc(F)c(F)c1)N1CCCN(c2c(Cl)cncc2Cl)CC1 [Compound 004] | + (>50% activity at about 10 μM) | – | – |
| O=C(Nc1ccc(F)c(Cl)c1)N1CCCN(c2c(Cl)cncc2Cl)CC1 [Compound 005] | + (>50% activity at about 10 μM) | – | – |
| O=C(Nc1cccc(Cl)c1)N1CCCN(c2c(Cl)cncc2Cl)CC1 [Compound 010] | + (>50% activity at about 10 μM) | > 50 | – |
| O=C(Nc1cccc(F)c1)N1CCCN(c2c(Cl)cncc2Cl)CC1 [Compound 011] | + (>50% activity at about 10 μM) | > 50 | – |
| O=C(Nc1cc(F)c(F)c(F)c1)N1CCCN(c2c(Cl)cncc2Cl)CC1 [Compound 025] | – | > 50 | – |
| O=C(Nc1ccc(F)c(Cl)c1)N1CCCN(c2c(Cl)cncc2Cl)CC1 [Compound 040] | – | > 50 | – |
| O=C(Nc1ccc(F)c(Cl)c1)N1CCCN(c2ccnc(Cl)c2Cl)CC1 [Compound 041] | – | > 50 | – |
| Cc1cncc(Cl)c1N1CCCN(C(=O)Nc2ccc(F)c(Cl)c2)CC1 [Compound 044] | + (>50% activity at about 10 μM) | > 50 | – |
| O=C(Nc1ccc(F)c(Cl)c1)N1CCCN(c2c(F)cncc2Cl)CC1 [Compound 045] | + (>50% activity at about 10 μM) | > 50 | – |
| Cc1cncc(C)c1N1CCCN(C(=O)Nc2ccc(F)c(Cl)c2)CC1 [Compound 047] | + (>50% activity at about 10 μM) | > 50 | – |
| O=C(Nc1ccc(Cl)c(F)c1)N1CCCN(c2c(Cl)cncc2Cl)CC1 [Compound 049] | – | > 50 | – |
| O=C(Nc1ccc(F)c(Cl)c1)C1CCCN(c2c(Cl)cncc2Cl)CC1 (stereo not shown) [Compound 055] | + (>50% activity at about 10 μM) | – | – |
| O=C(Nc1ccc(F)c(F)c1)C1CCCN(c2c(Cl)cncc2Cl)CC1 (stereo not shown) [Compound 056] | + (>50% activity at about 10 μM) | > 50 | – |
| O=C(Nc1ccc(F)c(Cl)c1)N1CC2CC(C1)N(c1c(Cl)cncc1Cl)C2 (stereo not shown) [Compound 065] | – | > 50 | – |
| O=C(Nc1ccc(F)c(Cl)c1)N1CC2CC1CCN2c1c(Cl)cncc1Cl (stereo not shown) [Compound 077] | – | > 50 | – |
| CC1CN(c2c(Cl)cncc2Cl)CCCN1C(=O)Nc1ccc(F)c(Cl)c1 (stereo not shown) [Compound 087] | – | > 50 | – |
| O=C(Nc1ccc(F)c(Cl)c1)N1CCCN(c2c(Cl)cncc2Cl)CC1Cc1ccccc1 (stereo not shown) [Compound 091] | + (>50% activity at about 10 μM) | – | > 4.70 |

| Structure (SMILES) | Activity (HBV assembly assay) [1] | inhibition at 10 µM [2] [%] | pIC50 [1] |
| --- | --- | --- | --- |
| CC1CCN(c2c(Cl)cncc2Cl)CCN1C(=O)Nc1ccc(F)c(Cl)c1 (stereo not shown) [Compound 092] | + (>50% activity at about 10 μM) | > 50 | > 4.70 |
| CC1CN(C(=O)Nc2ccc(F)c(Cl)c2)CCN(c2c(Cl)cncc2Cl)C1 (stereo not shown) [Compound 097] | + (>50% activity at about 10 μM) | > 50 | – |
| COC(=O)C1CN(C(=O)Nc2ccc(F)c(Cl)c2)CCN(c2c(Cl)cncc2Cl)C1 (stereo not shown) [Compound 098] | + (>50% activity at about 10 μM) | – | – |
| O=C(Nc1ccc(F)c(Cl)c1)N1CCN(c2c(Cl)cncc2Cl)CC(CO)C1 (stereo not shown) [Compound 099] | + (>50% activity at about 10 μM) | > 50 | – |
| O=C(Nc1ccc(F)c(Cl)c1)N1CCN(c2c(Cl)cncc2Cl)CC(O)C1 (stereo not shown) [Compound 100] | + (>50% activity at about 10 μM) | > 50 | – |
| CCc1cncc(Cl)c1N1CCCN(C(=O)Nc2ccc(F)c(Cl)c2)CC1 [Compound 107] | + (>50% activity at about 10 μM) | > 50 | > 4.70 |
| CCc1cncc(Cl)c1N1CCCN(C(=O)Nc2cccc(Cl)c2)CC1 [Compound 108] | + (>50% activity at about 10 μM) | – | > 4.70 |
| O=C(Nc1ccc(F)c(Cl)c1)N1CCCN(c2c(Cl)cncc2C2CC2)CC1 [Compound 109] | + (>50% activity at about 10 μM) | > 50 | > 4.70 |
| O=C(Nc1cccc(Cl)c1)N1CCCN(c2c(Cl)cncc2C2CC2)CC1 [Compound 110] | + (>50% activity at about 10 μM) | – | > 4.70 |
| O=C(Nc1ccc(F)c(Cl)c1)N1CCCN(c2c(Cl)cncc2Cc2ccccc2)CC1 [Compound 115] | – | > 50 | – |
| O=C(Nc1ccc(F)c(F)c1)N1C2CCC1CN(c1c(Cl)cncc1Cl)CC2 (stereo not shown) [Compound 120] | + (>50% activity at about 10 μM) | > 50 | – |
| O=C(Nc1ccc(F)c(Cl)c1)N1C2CCC1CN(c1c(Cl)cncc1Cl)CC2 (stereo not shown) [Compound 121] | – | > 50 | – |
| O=C(Nc1ccc(F)c(Cl)c1)N1CCCN(c2c(Cl)cncc2CO)CC1 [Compound 126] | – | > 50 | – |
| COCCc1cncc(Cl)c1N1CCCN(C(=O)Nc2ccc(F)c(Cl)c2)CC1 [Compound 129] | – | > 50 | – |
| COC1CN(C(=O)Nc2ccc(F)c(Cl)c2)CCN(c2c(Cl)cncc2Cl)C1 (stereo not shown) [Compound 130] | – | > 50 | – |
| CCOC1CN(C(=O)Nc2ccc(F)c(Cl)c2)CCN(c2c(Cl)cncc2Cl)C1 (stereo not shown) [Compound 131] | – | > 50 | – |

— US9758489B2, “Azepane derivatives and methods of treating hepatitis B infections” (Novira Therapeutics, Inc., priority 2013, dated 2017)
